These results are taken from PubChem BioAssay (NCI).

SMILES strings stand for the structures.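 Results reflect a 48-hour exposure of cells in 96-well plates to compound at five concentrations. At the GI50, growth is halved. Definition used: TGI = concentration required for complete inhibition of growth.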

Test systems include DMS 114 small cell lung; KM12 colon; SNB-78 CNS; NCI-H226 lung; XF 498 CNS; KM20L2 colon; DLD-1 colon; LOX IMVI melanoma; UACC-257 melanoma; P388 leukemia; HOP-18 NSCLC; RXF 393 renal; M19-MEL melanoma; BT-549 breast; MDA-MB-231 breast; MDA-N.
What all share (assay): NCI tumour cell line growth inhibition, 48 h

In the case of `CCOC(=O)/C=C/c1c[nH]c(=O)[nH]c1=O`, the TGI in the experiment with DMS 114 small cell lung, with KM12 colon, in the experiment with SNB-78 CNS, in the experiment with NCI-H226 lung, in the experiment with XF 498 CNS and in the experiment on KM20L2 colon was more than 75 µM in each case. Moreover, the TGI in the experiment with DLD-1 colon, in the experiment on LOX IMVI melanoma, in the experiment with UACC-257 melanoma, with P388 leukemia, in the experiment on HOP-18 NSCLC and in the experiment with RXF 393 renal was more than 75 µM throughout. Also, the TGI with M19-MEL melanoma is more than 75 µM.

Turning to `CCCCCCC(=O)c1ccc2ccccc2c1O`, the TGI in the experiment on KM12 colon is more than 100 µM; with NCI-H226 lung it was more than 100 µM; in the experiment on BT-549 breast, more than 100 µM; with LOX IMVI melanoma it was more than 100 µM; in the experiment with UACC-257 melanoma it was more than 100 µM; in the experiment on RXF 393 renal, 74.4 µM. The same molecule gave a TGI in the experiment with MDA-MB-231 breast of more than 100 µM.

Take `CC(=O)OCc1nnn2c1CCC2`: the TGI in the experiment on KM12 colon, with SNB-78 CNS, in the experiment on XF 498 CNS, in the experiment on KM20L2 colon, in the experiment on DLD-1 colon and in the experiment with LOX IMVI melanoma was more than 100 µM throughout. The TGI in the experiment on UACC-257 melanoma, with HOP-18 NSCLC, with RXF 393 renal and in the experiment on M19-MEL melanoma was more than 100 µM in each case.

As to `C=CCOC1OC(CS(=O)(=O)O)C(OC(C)=O)C(OC(C)=O)C1OC(C)=O` (stereo not drawn), the TGI in the experiment with MDA-N, in the experiment with KM12 colon, with NCI-H226 lung, in the experiment on BT-549 breast, in the experiment on LOX IMVI melanoma and in the experiment with UACC-257 melanoma was more than 100 µM throughout. Moreover, in the experiment on RXF 393 renal, the TGI was more than 100 µM.

`CCOC(=O)C1=C(C)N(C2OC(COC(C)=O)C(OC(C)=O)C(OC(C)=O)C2OC(C)=O)C(=O)NC1c1ccccc1` (stereo not drawn): the TGI in the experiment on DMS 114 small cell lung, in the experiment with KM12 colon, with SNB-78 CNS, with NCI-H226 lung, with KM20L2 colon and in the experiment with DLD-1 colon was more than 100 µM each time. For the same molecule, the TGI in the experiment on LOX IMVI melanoma, with UACC-257 melanoma, in the experiment on HOP-18 NSCLC and in the experiment with M19-MEL melanoma was more than 100 µM in each case.

On to `COc1ccc(OCC(C)(C)O)cc1`, for which the TGI with DMS 114 small cell lung, in the experiment on KM12 colon, in the experiment with SNB-78 CNS, in the experiment on NCI-H226 lung, in the experiment on XF 498 CNS and in the experiment with KM20L2 colon was more than 100 µM throughout. The TGI in the experiment on DLD-1 colon, in the experiment with LOX IMVI melanoma, in the experiment on UACC-257 melanoma, with P388 leukemia, with HOP-18 NSCLC and in the experiment with RXF 393 renal was more than 100 µM in each case.

`c1ccc(N2N=C3N(c4ccccc4)C2N3c2ccccc2)cc1`: the TGI in the experiment with MDA-N was 41.8 µM; in the experiment with KM12 colon, more than 100 µM; in the experiment with BT-549 breast it was more than 100 µM; in the experiment on LOX IMVI melanoma, 62.4 µM; in the experiment on UACC-257 melanoma it was 55 µM; in the experiment with RXF 393 renal, more than 100 µM. For the same molecule, the TGI in the experiment with MDA-MB-231 breast was more than 100 µM.

`COc1ccc(-c2c3c(nc4[nH]c(=S)[nH]c(=S)c24)CCCC3)cc1OC`: the TGI with MDA-N was more than 100 µM; with KM12 colon it was more than 100 µM; in the experiment on BT-549 breast, more than 100 µM; in the experiment on LOX IMVI melanoma it was 45.3 µM; with UACC-257 melanoma, more than 100 µM; in the experiment with RXF 393 renal, 57.9 µM. In the experiment with MDA-MB-231 breast, the TGI is more than 100 µM.

On to `CCCCn1c(C)c2c(c1C)C(=O)N(CCN1CCN(c3ccccc3Cl)CC1)C2=O`, for which the TGI in the experiment on MDA-N was more than 100 µM; in the experiment with KM12 colon, more than 100 µM; in the experiment with NCI-H226 lung, more than 100 µM; with BT-549 breast, 41.7 µM; with LOX IMVI melanoma, 30.1 µM; with UACC-257 melanoma it was 74.3 µM. The molecule further had a TGI with MDA-MB-231 breast of more than 100 µM.

As to `CCCCCCCCCC[N+](C)(C)C`, the GI50 is 2.37 µM in the experiment on NCI-H226 lung, 1.41 µM with LOX IMVI melanoma, 2.3 µM in the experiment on UACC-257 melanoma and 1.59 µM in the experiment on MDA-MB-231 breast. Also, the TGI with NCI-H226 lung was found to be 8.97 µM; with LOX IMVI melanoma it was 2.95 µM; in the experiment on UACC-257 melanoma, 7.07 µM; in the experiment with MDA-MB-231 breast, 4.38 µM.
